Test results published in patent US20020137929A1, “1 - (3-heterocyclylphenyl) isothiourea, -isourea, -guanidine and -amidine herbicidal agents” (Intellectual Property Department, BASF Aktiengesellschaft, priority 1998, published 2002).

Legend:
CASOB (Sicklepod) = test: Preemergence herbicidal evaluation; assay type: in vivo, Cassia obtusifolia; settings: rated 4-5 weeks after treatment
Method in brief: (§1)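 Greenhouse preemergence test: seed-soil mix sown on ~1 inch soil; aqueous acetone spray at equivalent of ~0.0156–0.500 kg/ha; greenhouse-held and watered; scored 0–9 visually at 4–5 weeks.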

[1] = test system: TRZAWR (Wheat, Winter, cv Riband); test: Postemergence herbicidal evaluation; assay type: in vivo, Triticum aestivum; settings: postemergence
Method in brief: (§2)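 Two-week-old seedlings sprayed with compound in 50/50 acetone/water plus 0.5% TWEEN 20, at about 0.0156 to 0.500 kg/ha, nozzle at 40 psi. Kept in greenhouse; rated visually 4-5 weeks after treatment on a 0-9 scale versus control, repeat tests averaged.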

ABUTH (Velvetleaf) = test: Postemergence herbicidal evaluation; assay type: in vivo, Abutilon theophrasti; settings: postemergence
Method in brief: as §2

[2] = test system: IPOHE (Morningglory, Ivyleaf); test: Postemergence herbicidal evaluation; assay type: in vivo, Ipomoea hederacea; settings: postemergence
Method in brief: as §2

ECHCG (Barnyardgrass) [3] = test: Preemergence herbicidal evaluation; assay type: in vivo, Echinochloa crus-galli; settings: rated 4-5 weeks after treatment
Method in brief: as §1

[4] = test system: CHEAL (Lambsquarters, Common); test: Preemergence herbicidal evaluation; assay type: in vivo, Chenopodium album; settings: rated 4-5 weeks after treatment
Method in brief: as §1

ZEAMX (Corn, Field) = test: Preemergence herbicidal evaluation; assay type: in vivo, Zea mays; settings: rated 4-5 weeks after treatment
Method in brief: as §1

SETVI (Foxtail, Green) = test: Postemergence herbicidal evaluation; assay type: in vivo, Setaria viridis; settings: postemergence
Method in brief: as §2

[5] = test system: GLXMAW (Soybean, Williams); test: Postemergence herbicidal evaluation; assay type: in vivo, Glycine max, (L.) Merr. cv Williams; settings: postemergence
Method in brief: as §2

ECHCG (Barnyardgrass) [6] = test: Postemergence herbicidal evaluation; assay type: in vivo, Echinochloa crus-galli; settings: postemergence
Method in brief: as §2

AMBEL (Ragweed, Common) = test: Postemergence herbicidal evaluation; assay type: in vivo, Ambrosia artemisifolia; settings: postemergence
Method in brief: as §2

GALAP (Galium) = test: Preemergence herbicidal evaluation; assay type: in vivo, Galium aparine; settings: rated 4-5 weeks after treatment
Method in brief: as §1

[7] = test system: IPOHE (Morningglory, Ivyleaf); test: Preemergence herbicidal evaluation; assay type: in vivo, Ipomoea hederacea; settings: rated 4-5 weeks after treatment
Method in brief: as §1

CC(C)N1C(=O)CSC1=Nc1cc(-n2c(=O)cc(C(F)(F)F)n(C)c2=O)c(F)cc1Cl [Compound 164, 3-{4-Chloro-2-fluoro-5-[(3-isopropyl-4-oxo-2-thiazolidinylidene)amino]phenyl}-1-methyl-6-(trifluoromethyl)-2,4(1H,3H)-pyrimidinedione]
Preemergence herbicidal rating CASOB (CASOB (Sicklepod); 0.0156 kg/ha): 1.0 | Preemergence herbicidal rating CASOB (CASOB (Sicklepod); 0.0313 kg/ha): 0.0 | Preemergence herbicidal rating CASOB (CASOB (Sicklepod); 0.0625 kg/ha): 7.0 | Preemergence herbicidal rating CASOB (CASOB (Sicklepod); 0.1250 kg/ha): 7.0 | Preemergence herbicidal rating CASOB (CASOB (Sicklepod); 0.2500 kg/ha): 9.0 | Preemergence herbicidal rating CASOB (CASOB (Sicklepod); 0.5000 kg/ha): 5.0 | Herbicidal rating TRZAWR ([1]; rate 0.0156 kg/ha): 4.0 | Herbicidal rating TRZAWR ([1]; rate 0.0313 kg/ha): 4.5 | Herbicidal rating TRZAWR ([1]; rate 0.0625 kg/ha): 5.5 | Herbicidal rating TRZAWR ([1]; rate 0.1250 kg/ha): 5.5 | Herbicidal rating ABUTH (ABUTH (Velvetleaf); rate 0.0156 kg/ha): 9.0 | Herbicidal rating ABUTH (ABUTH (Velvetleaf); rate 0.0313 kg/ha): 9.0 | Herbicidal rating ABUTH (ABUTH (Velvetleaf); rate 0.0625 kg/ha): 9.0 | Herbicidal rating ABUTH (ABUTH (Velvetleaf); rate 0.1250 kg/ha): 9.0 | Herbicidal rating IPOHE ([2]; rate 0.0156 kg/ha): 9.0 | Herbicidal rating IPOHE ([2]; rate 0.0313 kg/ha): 9.0 | Herbicidal rating IPOHE ([2]; rate 0.0625 kg/ha): 9.0 | Herbicidal rating IPOHE ([2]; rate 0.1250 kg/ha): 9.0 | Preemergence herbicidal rating ECHCG (ECHCG (Barnyardgrass) [3]; 0.0156 kg/ha): 0.0 | Preemergence herbicidal rating ECHCG (ECHCG (Barnyardgrass) [3]; 0.0313 kg/ha): 7.0 | Preemergence herbicidal rating ECHCG (ECHCG (Barnyardgrass) [3]; 0.0625 kg/ha): 7.0 | Preemergence herbicidal rating ECHCG (ECHCG (Barnyardgrass) [3]; 0.1250 kg/ha): 9.0 | Preemergence herbicidal rating ECHCG (ECHCG (Barnyardgrass) [3]; 0.2500 kg/ha): 9.0 | Preemergence herbicidal rating ECHCG (ECHCG (Barnyardgrass) [3]; 0.5000 kg/ha): 9.0 | Preemergence herbicidal rating CHEAL ([4]; 0.0156 kg/ha): 9.0 | Preemergence herbicidal rating CHEAL ([4]; 0.0313 kg/ha): 9.0 | Preemergence herbicidal rating CHEAL ([4]; 0.0625 kg/ha): 9.0 | Preemergence herbicidal rating CHEAL ([4]; 0.1250 kg/ha): 9.0 | Preemergence herbicidal rating CHEAL ([4]; 0.2500 kg/ha): 9.0 | Preemergence herbicidal rating CHEAL ([4]; 0.5000 kg/ha): 9.0 | Preemergence herbicidal rating ZEAMX (ZEAMX (Corn, Field); 0.0156 kg/ha): 2.0 | Preemergence herbicidal rating ZEAMX (ZEAMX (Corn, Field); 0.0313 kg/ha): 3.0 | Preemergence herbicidal rating ZEAMX (ZEAMX (Corn, Field); 0.0625 kg/ha): 6.0 | Preemergence herbicidal rating ZEAMX (ZEAMX (Corn, Field); 0.1250 kg/ha): 7.0 | Preemergence herbicidal rating ZEAMX (ZEAMX (Corn, Field); 0.2500 kg/ha): 8.0 | Preemergence herbicidal rating ZEAMX (ZEAMX (Corn, Field); 0.5000 kg/ha): 9.0 | Herbicidal rating SETVI (SETVI (Foxtail, Green); rate 0.0156 kg/ha): 4.0 | Herbicidal rating SETVI (SETVI (Foxtail, Green); rate 0.0313 kg/ha): 7.0 | Herbicidal rating SETVI (SETVI (Foxtail, Green); rate 0.0625 kg/ha): 9.0 | Herbicidal rating SETVI (SETVI (Foxtail, Green); rate 0.1250 kg/ha): 6.0 | Herbicidal rating GLXMAW ([5]; rate 0.0156 kg/ha): 6.0 | Herbicidal rating GLXMAW ([5]; rate 0.0313 kg/ha): 6.0 | Herbicidal rating GLXMAW ([5]; rate 0.0625 kg/ha): 7.0 | Herbicidal rating GLXMAW ([5]; rate 0.1250 kg/ha): 7.5 | Herbicidal rating ECHCG (ECHCG (Barnyardgrass) [6]; rate 0.0156 kg/ha): 2.0 | Herbicidal rating ECHCG (ECHCG (Barnyardgrass) [6]; rate 0.0313 kg/ha): 3.0 | Herbicidal rating ECHCG (ECHCG (Barnyardgrass) [6]; rate 0.0625 kg/ha): 3.0 | Herbicidal rating ECHCG (ECHCG (Barnyardgrass) [6]; rate 0.1250 kg/ha): 3.0 | Herbicidal rating AMBEL (AMBEL (Ragweed, Common); rate 0.0156 kg/ha): 7.0 | Herbicidal rating AMBEL (AMBEL (Ragweed, Common); rate 0.0313 kg/ha): 9.0 | Herbicidal rating AMBEL (AMBEL (Ragweed, Common); rate 0.0625 kg/ha): 9.0 | Herbicidal rating AMBEL (AMBEL (Ragweed, Common); rate 0.1250 kg/ha): 9.0 | Preemergence herbicidal rating GALAP (GALAP (Galium); 0.0156 kg/ha): 3.0 | Preemergence herbicidal rating GALAP (GALAP (Galium); 0.0313 kg/ha): 4.0 | Preemergence herbicidal rating GALAP (GALAP (Galium); 0.0625 kg/ha): 4.0 | Preemergence herbicidal rating GALAP (GALAP (Galium); 0.1250 kg/ha): 9.0 | Preemergence herbicidal rating GALAP (GALAP (Galium); 0.2500 kg/ha): 7.0 | Preemergence herbicidal rating GALAP (GALAP (Galium); 0.5000 kg/ha): 9.0 | Preemergence herbicidal rating IPOHE ([7]; 0.0156 kg/ha): 4.0 | Preemergence herbicidal rating IPOHE ([7]; 0.0313 kg/ha): 9.0 | Preemergence herbicidal rating IPOHE ([7]; 0.0625 kg/ha): 9.0 | Preemergence herbicidal rating IPOHE ([7]; 0.1250 kg/ha): 9.0 | Preemergence herbicidal rating IPOHE ([7]; 0.2500 kg/ha): 9.0 | Preemergence herbicidal rating IPOHE ([7]; 0.5000 kg/ha): 9.0
